Measurements published in BindingDB's records for doi:10.1016/0960-894X(95)00055-X (1995).

Target: Trehalase (Sus scrofa)
Experiment: Evaluated for the inhibition of trehalase from porcine kidneys

OCC1=CC(NC2COC(CO)C(O)C2O)C(O)C(O)C1O (stereo unspecified) [6-(4,5-Dihydroxy-6-hydroxymethyl-tetrahydro-pyran-3-ylamino)-4-hydroxymethyl-cyclohex-4-ene-1,2,3-triol]
Ki: 180 nM
